Experimental data taken from patent US5691365A, “Nicotinic receptor antagonists in the treatment of neuropharmacological disorders” (University of Kentucky Research Foundation, priority 1995, dated 1997).
Values joined by “and” are separate entries in the source; they are usually repeats but may differ in a detail not shown here. Identical values can stand only once. “Also recorded” adds a separate entry of the source. Like-named read-outs stand apart in the source and are kept apart here.

Assays:
[1] = test system: [^3 H]DA release from rat striatal slices; test: [3H]DA release assay: compound-evoked (intrinsic agonist) release; assay type: cell-based; settings: for total [3H]overflow (effect on [3H]DA release): Table 3, mean ± S.E.M.; for total [3H]overflow (effect on [3H]DA release) / effect on [3H]DA release / intrinsic agonist activity (in words): rat striatal slices; for effect on [3H]DA release / intrinsic agonist activity (in words): 1-100 μM
Description: (§1) Biological Methods. Male Spragua-Dawley rats (150-200 g) were obtained from Harlan Laboratories (Indianapolis, Ind.) and were housed two per cage with free access to food and water in the Division of Lab Animal Resources at the College of Pharmacy at the University of Kentucky. Experimental protocols involving the animals were approved by the Institutional Animal Care and Use Committee at the University of Kentucky.
(§2) [^3 H]DA Release Assay. Rat striatal slices (500 μm thickness, 6-8 mg wet weight) were obtained as previously described (Dwoskin and Zahniser, 1986). Slices were incubated for 30 min in Krebs' buffer ([…]; 118 NaCl, 4.7 KCl, 1.2 MgCl2, 1.0 NaH2 PO4, 1.3 CaCl2, […], 11.1 glucose, 25 NaHCO3, 0.11 L-ascorbic acid nd 0.004 disodium EDTA; pH 7.4 and saturated with 95% O2 /5% CO2) in a metabolic shaker at 34°. Slices were rinsed with 15 ml of fresh buffer and incubated for an additional 30 min in fresh buffer containing 0.1 μM [^3 H]dopamine (6 slices/3 ml). Subsequently, slices were rinsed with 15 ml of fresh buffer and transferred to a glass superfusion chamber. Slices were superfused (1.0 ml/min) for 60 min with Krebs' buffer containing nomifensine (10 μm) and pargyline (10 μm) and maintained at 34° C., pH 7.4 with continual aeration (95% O2 /5% CO2). Two 5-min samples (5 ml) were collected to determine basal outflow of [^3 H]DA. N-Substituted nicotine analogues were added to the superfusion buffer after the collection of the second sample and remained in the buffer until 12 consecutive 5-min samples were collected. […] At the end of the experiment each slice was solubilized and the [^3 H] content of the tissue determined.
(§3) Radioactivity in the superfusate and tissue samples was determined by liquid scintillation spectroscopy. Fractional release for each superfusate sample was calculated by dividing the total tritium collected in each sample by the total tritium present in the tissue at the time of sample collection. Basal [^3 H]out flow was calculated from the average of the tritium collected in the two 5-min samples just before addition of the N-substituted nicotine analogue. The sums of the increase in collected tritium resulting from either exposure to the test compound or exposure to nicotine in the absence and presence of the test compound equaled total [^3 H]overflow. [^3 H]overflow was calculated by subtracting the [^3 H]outflow during an equivalent period of prestimulation from the values in samples collected during and after drug exposure. Inasmuch as the radiolabelled compounds were not separated and identified, the tritium collected in superfusate is referred to as either [^3 H]outflow or [^3 H]overflow, rather than as [^3 H]DA. [^3 H]Overflow primarily represents [^3 H]DA in the presence of nomifensine and pargyline in the superfusion buffer (Zumstein et al. 1981).

[2] = test system: S(-)nicotine (10 μM)-evoked [^3 H]DA release from rat striatal slices; assay type: cell-based
Description: as §1, §2, §3
In these experiments, the striatal slices were superfused for 60 min with various concentrations of the analogues prior to nicotine (10 μM) exposure. Antagonist activity was evaluated by comparing the nicotine-evoked [^3 H]overflow in the absence and presence of the analogues. […] The relative order of potency of the classical and pyridine-N substituted nicotine analogues for inhibition of nicotine-evoked [^3 H]DA release from rat striatal slices is illustrated in FIG. 2 by a comparison of their IC50 values.
FIG. 2. IC50 values for N-substituted analogues of nicotine, nornicotine, and cotinine to inhibit nicotine-evoked [^3 H]DA release from rat striatal slices. Inhibition produced by the classical nicotinic inhibitors, mecamylamine (MEC) and DHBE was also determined. Slices were superfused with inhibitor for 60 min […] co-superfusion with 10 μM nicotine. Inhibition was determined by comparing [^3 H]DA release in the absence and presence of various concentrations of inhibitor. IC50 values were determined using the Logit-log plot (pseudo-Hill plot). […] IC50 for each animal was determined as the intercept of the linear regression.

[3] = test system: rat hypothalamic and corticotropin-releasing hormone secretion; settings: cited from earlier work

Row | Compound | total [3H]overflow (effect on [3H]DA release) ([1]; 1 μM) | total [3H]overflow (effect on [3H]DA release) ([1]; 10 μM) | total [3H]overflow (effect on [3H]DA release) ([1]; 100 μM) | effect on [3H]DA release / intrinsic agonist activity (in words) [1] | nicotinic antagonist activity / inhibition of nicotine-evoked [3H]DA release (in words) [2] | relative order of potency for inhibition of nicotine-evoked [3H]DA release (comparison of IC50 values) [2] | total [3H]overflow during cosuperfusion with 10 μM nicotine [2] | agonist activity relative to nicotine [1] | effect on [3H]DA release / intrinsic agonist activity (in words) ([1]; listed as HONI) | potency relative to mecamylamine and dihydro-β-erythroidine [2] | concentration for intrinsic agonist activity relative to that required to completely inhibit nicotine-evoked [3H]DA release ([2]; fold higher) [fold] | effect on IR-rCRH secretion (in words) [3] | effect on IR-rCRH secretion (in words) ([3]; in vitro, p less than 0.05 for antagonists of acetylcholine)
1 | CN1CCC[C@H]1c1ccc[n+](Cc2ccccc2)c1 [NBNB, S-N-benzyl nicotinium bromide] | 0.21 ± 0.12 | 0.28 ± 0.12 | 6.04 ± 0.97 | evoked [^3 H]DA release and thus, possess intrinsic agonist activity at this concentration | Significant antagonist activity; also recorded: significantly lower potency and efficacy; also recorded: possessing antagonist activity; also recorded: preferred nicotinic receptor antagonist activity | NBNB=NPNI=NnNBI=NANI>NHENI | 1.50 ± 0.55 and 1.27 ± 0.35 | – | – | – | – | – | –
2 | CN1CCC[C@H]1c1ccc[n+](CCO)c1 [NHENI, S-N-hydroxyethyl nicotinium iodide] | 0.00 ± 0.00 | 0.00 ± 0.00 | 0.08 ± 0.04 | – | Significant antagonist activity; also recorded: preferred nicotinic receptor antagonist activity | NHENI>>>(±)di-N-allyl nicotinium iodide (DNANI) | – | – | – | – | – | – | –
3 | CN1C(=O)CC[C@H]1c1ccc[n+](C)c1 [NMCI, S-N-methylcotininium iodide] | 0.00 ± 0.00 | 0.01 ± 0.01 | 0.02 ± 0.01 | – | did not exhibit significant nicotinic antagonist activity over the concentration range tested; also recorded: devoid of antagonist activity | NMNI=S-N-methylcotininium iodide (NMCI)=S-N'-methyl nicotinium iodide (PIPNMN) | 3.11 ± 1.32 and 3.11 ± 1.20 and 3.75 ± 1.66 | – | – | – | – | – | –
4 | CN1CCC[C@H]1c1ccc[n+](C)c1 [NMNI] | 0.13 ± 0.11 | 0.17 ± 0.10 | 0.08 ± 0.06 | – | did not exhibit significant nicotinic antagonist activity over the concentration range tested; also recorded: no antagonistic activity; also recorded: devoid of antagonist activity | NMNI=S-N-methylcotininium iodide (NMCI)=S-N'-methyl nicotinium iodide (PIPNMN) | – | – | – | – | – | – | –
5 | CCCCCCCC[n+]1cccc([C@@H]2CCCN2C)c1 [NONI, S-N-octylnicotinium iodide] | 0.03 ± 0.02 | 0.14 ± 0.14 | 16.4 ± 2.00 | possessed intrinsic agonist activity at this high concentration; also recorded: did not possess agonist activity at concentrations which completely blocked nicotine-evoked [^3 H]DA release | Significant antagonist activity; also recorded: completely inhibited nicotine-evoked [^3 H]DA release; also recorded: Greatest antagonist potency; also recorded: preferred nicotinic receptor antagonist activity; also recorded: most efficacious and potent compound in the series; also recorded: completely blocked the effect of nicotine to evoke [^3 H]DA release | NONI>>DHBE=MEC | – | three-times the agonist activity of nicotine | evoked [^3 H]DA release and thus, possess intrinsic agonist activity at this concentration | approximately half that of the classical nicotinic antagonists | 10 | – | –
6 | CCC[n+]1cccc([C@@H]2CCCN2C)c1 [NPNI, S-N-propyl nicotinium iodide] | 0.06 ± 0.01 | 0.03 ± 0.03 | 0.03 ± 0.03 | – | Significant antagonist activity; also recorded: significantly lower potency and efficacy; also recorded: preferred nicotinic receptor antagonist activity | NBNB=NPNI=NnNBI=NANI>NHENI | – | – | – | – | – | – | –
7 | CCCC[n+]1cccc([C@@H]2CCCN2C)c1 [NnBNI, S-N-nbutyl nicotinium iodine] | 0.00 ± 0.00 | 0.01 ± 0.01 | 0.01 ± 0.01 | – | Significant antagonist activity; also recorded: significantly lower potency and efficacy; also recorded: preferred nicotinic receptor antagonist activity | NBNB=NPNI=NnNBI=NANI>NHENI | – | – | – | – | – | – | –
8 | C[N+]1(C)CCC[C@H]1c1cccnc1 [PIPNMN, S-N'-methyl nicotinium iodide] | 0.03 ± 0.03 | 0.01 ± 0.01 | 0.05 ± 0.02 | – | did not exhibit significant nicotinic antagonist activity over the concentration range tested | NMNI=S-N-methylcotininium iodide (NMCI)=S-N'-methyl nicotinium iodide (PIPNMN) | 3.16 ± 1.46 and 2.98 ± 1.48 and 1.88 ± 0.77 | – | – | – | – | – | –
9 | CN1[C@@H]2CC[C@H]1C[C@@H](OC(=O)C(CO)c1ccccc1)C2 (stereo partly shown) [atropine] | – | – | – | – | – | – | – | – | – | – | – | This effect was antagonized by the simultaneous presence of atropine and hexamethonium | –
10 | C[N+](C)(C)CCOC(N)=O [carbachol] | – | – | – | – | – | – | – | – | – | – | – | – | stimulated IR-rCRH secretion in a dose-dependent fashion
11 | C[N+](C)(C)CCCCCC[N+](C)(C)C [hexamethonium] | – | – | – | – | – | – | – | – | – | – | – | This effect was antagonized by the simultaneous presence of atropine and hexamethonium | –
